Experiments:
[1] = Aggregation behavior of compound in DMF by UV-vis absorption spectra analysis; type: physicochemical
[2] = Photostability in DMF assessed as release of singlet oxygen at 4 uM preincubated with DPBF in dark followed by irradiation with red light by DPBF decay assay; type: functional
HT-29 [3] = experiment: Photocytotoxicity against human HT-29 cells with high expression of alphaVbeta3 integrin assessed as decrease in cell viability preincubated for 2 hrs followed by red light irradiation and measured after overnight incubation by MTT assay; type: functional, cell-based; conditions: HT-29, light or radiation study
HT-29 [4] = experiment: Photocytotoxicity against human HT-29 cells with high expression of alphaVbeta3 integrin assessed as decrease in cell viability preincubated for 24 hrs followed by red light irradiation and measured after overnight incubation by MTT assay; type: functional, cell-based; conditions: HT-29, light or radiation study
MCF7 [5] = experiment: Photocytotoxicity against human MCF7 cells with low expression of alphaVbeta3 integrin assessed as decrease in cell viability preincubated for 2 hrs followed by red light irradiation and measured after overnight incubation by MTT assay; type: functional, cell-based; conditions: MCF7, light or radiation study
MCF7 [6] = experiment: Photocytotoxicity against human MCF7 cells with low expression of alphaVbeta3 integrin assessed as decrease in cell viability preincubated for 24 hrs followed by red light irradiation and measured after overnight incubation by MTT assay; type: functional, cell-based; conditions: MCF7, light or radiation study
[7] = Selectivity ratio of IC50 for human MCF7 cells with low expression of alphaVbeta3 integrin to IC50 for human HT-29 cells with high expression of alphaVbeta3 integrin preincubated for 2 hrs followed by red light irradiation and measured after overnight incubation by MTT assay; type: functional
[8] = Selectivity ratio of IC50 for human MCF7 cells with low expression of alphaVbeta3 integrin to IC50 for human HT-29 cells with high expression of alphaVbeta3 integrin preincubated for 24 hrs followed by red light irradiation and measured after overnight incubation by MTT assay; type: functional
[9] = Aggregation behavior of compound in RPMI 1640 medium with 0.05% cremophor EL at 3 uM by UV-vis absorption spectra analysis; type: physicochemical
[10] = Aggregation behavior of compound in DMF at 1 to 6 uM by UV-vis absorption spectra analysis; type: physicochemical
[11] = Aggregation behavior of compound in water at 3 uM by UV-vis absorption spectra analysis; type: physicochemical; conditions: buffer

| Activity [1] | Activity [9] | Activity [10] | Activity [11] | Structure (SMILES) | Stability [2] | IC50 (HT-29 [3]) [nM] | IC50 (HT-29 [4]) [nM] | IC50 (MCF7 [5]) [nM] | IC50 (MCF7 [6]) [nM] | Ratio IC50 [7] | Ratio IC50 [8] |
| --- | --- | --- | --- | --- | --- | --- | --- | --- | --- | --- | --- |
| Not Active | – | – | – | [N-]=[N+]=NCCOCCOCCOCCO[Si]1(OCCOCCOCCOCCO)n2c3c4ccccc4c2/N=C2N=C(/N=c4/c5ccccc5/c(n41)=N/C1=NC(=N\3)/c3ccccc31)c1ccccc1\2 (centres undefined) | Unstable | 2.6 | 1.4 | 2.7 | 1.7 | 1.04 | 1.21 |
| – | Not Active | Not Active | Not Active | N=C(N)NCCC[C@@H]1NC(=O)[C@H](Cc2cn(CCOCCOCCO[Si]3(OCCOCCOCCO)n4c5c6ccccc6c4/N=C4N=C(/N=c6/c7ccccc7/c(n63)=N/C3=NC(=N\5)/c5ccccc53)c3ccccc3\4)nn2)NC(=O)[C@@H](Cc2ccccc2)NC(=O)[C@H](CC(=O)O)NC(=O)CNC1=O (some centres undefined) | Unstable | 32 | 26 | 39 | 26 | 1.22 | 1 |
| Not Active | – | – | – | [N-]=[N+]=NCCOCCO[Si]1(OCCOCCO)n2c3c4ccccc4c2/N=C2N=C(/N=c4/c5ccccc5/c(n41)=N/C1=NC(=N\3)/c3ccccc31)c1ccccc1\2 (centres undefined) | Unstable | 3.2 | 2.2 | 3.7 | 2.6 | 1.15 | 1.18 |
| Active | – | – | – | [N-]=[N+]=NCCOCCO[Si]1(OCCOCCN=[N+]=[N-])n2c3c4ccccc4c2/N=C2N=C(/N=c4/c5ccccc5/c(n41)=N/C1=NC(=N\3)/c3ccccc31)c1ccccc1\2 (centres undefined) | Unstable | 12 | 7.1 | 12 | 4.4 | 1 | 0.62 |
| Not Active | – | – | – | [N-]=[N+]=NCCOCCOCCO[Si]1(OCCOCCOCCO)n2c3c4ccccc4c2/N=C2N=C(/N=c4/c5ccccc5/c(n41)=N/C1=NC(=N\3)/c3ccccc31)c1ccccc1\2 (centres undefined) | Unstable | 3 | 1.7 | 2.5 | 1.3 | 0.83 | 0.76 |
| Not Active | – | – | – | OCCOCCO[Si]1(OCCOCCO)n2c3c4ccccc4c2/N=C2N=C(/N=c4/c5ccccc5/c(n41)=N/C1=NC(=N\3)/c3ccccc31)c1ccccc1\2 | Unstable | 1.2 | 0.8 | 1 | 0.9 | 0.83 | 1.13 |
| Not Active | – | – | – | OCCOCCOCCOCCO[Si]1(OCCOCCOCCOCCO)n2c3c4ccccc4c2/N=C2N=C(/N=c4/c5ccccc5/c(n41)=N/C1=NC(=N\3)/c3ccccc31)c1ccccc1\2 | Unstable | 0.2 | 0.2 | 0.2 | 0.2 | 1 | 1 |
| Not Active | – | – | – | [N-]=[N+]=NCCOCCOCCOCCO[Si]1(OCCOCCOCCOCCN=[N+]=[N-])n2c3c4ccccc4c2/N=C2N=C(/N=c4/c5ccccc5/c(n41)=N/C1=NC(=N\3)/c3ccccc31)c1ccccc1\2 (centres undefined) | Unstable | 6.3 | 3.9 | 6.5 | 4 | 1.03 | 1.03 |
| Not Active | – | – | – | [N-]=[N+]=NCCOCCOCCO[Si]1(OCCOCCOCCN=[N+]=[N-])n2c3c4ccccc4c2/N=C2N=C(/N=c4/c5ccccc5/c(n41)=N/C1=NC(=N\3)/c3ccccc31)c1ccccc1\2 (centres undefined) | Unstable | 8.6 | 7.9 | 12 | 11 | 1.4 | 1.39 |
